Marks after values point to notes of the source that are not given here.
System: female rats
Experiment: 28-day repeated dose oral toxicity study (OECD 407) with GC-MS/LC-MS plasma metabolite profiling, female rats

CN1CCCC1=O [1-Methyl-2-pyrrolidon]
3-O-Methylsphingosine (d18:1), ratio versus control (day 7): 2.14* | 5-O-Methylsphingosine (d18:1), ratio versus control (day 7): 2.42* | 14-Methylhexadecanoic acid, ratio versus control (day 7): 1.15 | Behenic acid (C22:0), ratio versus control (day 7): 1.9* | Cholesterol, ratio versus control (day 7): 1.73* | Coenzyme Q9, ratio versus control (day 7): 2.46* | DAG (C18:1,C18:2), ratio versus control (day 7): 2.43* | Eicosanoic acid (C20:0), ratio versus control (day 7): 1.77* | Glucose, ratio versus control (day 7): 1.05* | Glycerol phosphate, lipid fraction, ratio versus control (day 7): 1.86* | Glycerol, lipid fraction, ratio versus control (day 7): 2.24* | Glycerol-3-phosphate, polar fraction, ratio versus control (day 7): 1.9* | Heptadecanoic acid (C17:0), ratio versus control (day 7): 1.46* | Linoleic acid (C18:cis[9,12]2), ratio versus control (day 7): 2.52* | Nervonic acid (C24:cis[15]1), ratio versus control (day 7): 1.75* | Palmitic acid (C16:0), ratio versus control (day 7): 1.91* | Phosphatidylcholine (C16:0,C20:5), ratio versus control (day 7): 1.32* | TAG (C16:0,C18:1,C18:3), ratio versus control (day 7): 3.94* | TAG (C16:0,C18:2), ratio versus control (day 7): 2.46* | TAG (C18:1,C18:2), ratio versus control (day 7): 3.73* | TAG (C18:2,C18:2), ratio versus control (day 7): 3.44* | TAG (C18:2,C18:3), ratio versus control (day 7): 4.16* | TAG No 01, ratio versus control (day 7): 3.21* | TAG No 05, ratio versus control (day 7): 3.11* | TAG No 07, ratio versus control (day 7): 3.69* | dihomo-gamma-Linolenic acid (C20:cis[8,11,14]3), ratio versus control (day 7): 2.37* | erythro-Sphingosine, ratio versus control (day 7): 2.19* | 3-O-Methylsphingosine (d18:1), ratio versus control (day 14): 2.3* | 5-O-Methylsphingosine (d18:1), ratio versus control (day 14): 2.31* | 14-Methylhexadecanoic acid, ratio versus control (day 14): 0.93 | Behenic acid (C22:0), ratio versus control (day 14): 2.04* | Cholesterol, ratio versus control (day 14): 2.16* | Coenzyme Q9, ratio versus control (day 14): 2.57* | DAG (C18:1,C18:2), ratio versus control (day 14): 2.31* | Eicosanoic acid (C20:0), ratio versus control (day 14): 1.8* | Glucose, ratio versus control (day 14): 0.99 | Glycerol phosphate, lipid fraction, ratio versus control (day 14): 1.72* | Glycerol, lipid fraction, ratio versus control (day 14): 2.33* | Glycerol-3-phosphate, polar fraction, ratio versus control (day 14): 1.11* | Heptadecanoic acid (C17:0), ratio versus control (day 14): 1.39* | Linoleic acid (C18:cis[9,12]2), ratio versus control (day 14): 2.4* | Nervonic acid (C24:cis[15]1), ratio versus control (day 14): 1.64* | Palmitic acid (C16:0), ratio versus control (day 14): 1.95* | Phosphatidylcholine (C16:0,C20:5), ratio versus control (day 14): 1.45* | TAG (C16:0,C18:1,C18:3), ratio versus control (day 14): 4.14* | TAG (C16:0,C18:2), ratio versus control (day 14): 3.6* | TAG (C18:1,C18:2), ratio versus control (day 14): 3.82* | TAG (C18:2,C18:2), ratio versus control (day 14): 3.56* | TAG (C18:2,C18:3), ratio versus control (day 14): 3.61* | TAG No 01, ratio versus control (day 14): 4.15* | TAG No 05, ratio versus control (day 14): 5.32* | TAG No 07, ratio versus control (day 14): 3.84* | dihomo-gamma-Linolenic acid (C20:cis[8,11,14]3), ratio versus control (day 14): 2.16* | erythro-Sphingosine, ratio versus control (day 14): 2.27* | 3-O-Methylsphingosine (d18:1), ratio versus control (day 28): 1.83* | 5-O-Methylsphingosine (d18:1), ratio versus control (day 28): 1.89* | 14-Methylhexadecanoic acid, ratio versus control (day 28): 1.35* | Behenic acid (C22:0), ratio versus control (day 28): 2.06* | Cholesterol, ratio versus control (day 28): 2.38* | Coenzyme Q9, ratio versus control (day 28): 3.27* | DAG (C18:1,C18:2), ratio versus control (day 28): 6.81* | Eicosanoic acid (C20:0), ratio versus control (day 28): 2.79* | Glucose, ratio versus control (day 28): 0.76* | Glycerol phosphate, lipid fraction, ratio versus control (day 28): 2.59* | Glycerol, lipid fraction, ratio versus control (day 28): 5.75* | Glycerol-3-phosphate, polar fraction, ratio versus control (day 28): 1.29 | Heptadecanoic acid (C17:0), ratio versus control (day 28): 2.17* | Linoleic acid (C18:cis[9,12]2), ratio versus control (day 28): 4.46* | Nervonic acid (C24:cis[15]1), ratio versus control (day 28): 1.75* | Palmitic acid (C16:0), ratio versus control (day 28): 3.53* | Phosphatidylcholine (C16:0,C20:5), ratio versus control (day 28): 1.35* | TAG (C16:0,C18:1,C18:3), ratio versus control (day 28): 11.37* | TAG (C16:0,C18:2), ratio versus control (day 28): 3.51* | TAG (C18:1,C18:2), ratio versus control (day 28): 7.38* | TAG (C18:2,C18:2), ratio versus control (day 28): 7.33* | TAG (C18:2,C18:3), ratio versus control (day 28): 11.21* | TAG No 01, ratio versus control (day 28): 11.51* | TAG No 05, ratio versus control (day 28): 10.76* | TAG No 07, ratio versus control (day 28): 14.21* | dihomo-gamma-Linolenic acid (C20:cis[8,11,14]3), ratio versus control (day 28): 3.96* | erythro-Sphingosine, ratio versus control (day 28): 1.9*

CNC(=O)/C(=N/OC)c1ccccc1COc1cc(C)ccc1C [Dimoxystrobin, (E)-2-(methoxyimino)-N-methyl-2-[alpha-(2,5-xylyloxy)-o-tolyl]acetamide]
3-O-Methylsphingosine (d18:1), ratio versus control (day 7): 2.18* | 5-O-Methylsphingosine (d18:1), ratio versus control (day 7): 1.94* | 14-Methylhexadecanoic acid, ratio versus control (day 7): 1.27 | Behenic acid (C22:0), ratio versus control (day 7): 2.03* | Cholesterol, ratio versus control (day 7): 1.66* | Coenzyme Q9, ratio versus control (day 7): 1.51* | DAG (C18:1,C18:2), ratio versus control (day 7): 2.28* | Eicosanoic acid (C20:0), ratio versus control (day 7): 2.23* | Glucose, ratio versus control (day 7): 1.14 | Glycerol phosphate, lipid fraction, ratio versus control (day 7): 1.68* | Glycerol, lipid fraction, ratio versus control (day 7): 2.08* | Glycerol-3-phosphate, polar fraction, ratio versus control (day 7): 1.38 | Heptadecanoic acid (C17:0), ratio versus control (day 7): 1.81* | Linoleic acid (C18:cis[9,12]2), ratio versus control (day 7): 2.12* | Nervonic acid (C24:cis[15]1), ratio versus control (day 7): 1.83* | Palmitic acid (C16:0), ratio versus control (day 7): 1.99* | Phosphatidylcholine (C16:0,C20:5), ratio versus control (day 7): 1.33* | TAG (C16:0,C18:1,C18:3), ratio versus control (day 7): 4.17* | TAG (C16:0,C18:2), ratio versus control (day 7): 3.49* | TAG (C18:1,C18:2), ratio versus control (day 7): 4.18* | TAG (C18:2,C18:2), ratio versus control (day 7): 3.69* | TAG (C18:2,C18:3), ratio versus control (day 7): 3.61* | TAG No 01, ratio versus control (day 7): 2.62* | TAG No 05, ratio versus control (day 7): 2.89* | TAG No 07, ratio versus control (day 7): 2.5* | dihomo-gamma-Linolenic acid (C20:cis[8,11,14]3), ratio versus control (day 7): 2.95* | erythro-Sphingosine, ratio versus control (day 7): 1.86* | 3-O-Methylsphingosine (d18:1), ratio versus control (day 14): 1.78* | 5-O-Methylsphingosine (d18:1), ratio versus control (day 14): 1.94* | 14-Methylhexadecanoic acid, ratio versus control (day 14): 1.15 | Behenic acid (C22:0), ratio versus control (day 14): 2.23* | Cholesterol, ratio versus control (day 14): 1.7* | Coenzyme Q9, ratio versus control (day 14): 1.91 | DAG (C18:1,C18:2), ratio versus control (day 14): 2.99* | Eicosanoic acid (C20:0), ratio versus control (day 14): 2.54* | Glucose, ratio versus control (day 14): 1.17 | Glycerol phosphate, lipid fraction, ratio versus control (day 14): 1.69* | Glycerol, lipid fraction, ratio versus control (day 14): 2.44* | Glycerol-3-phosphate, polar fraction, ratio versus control (day 14): 1.32* | Heptadecanoic acid (C17:0), ratio versus control (day 14): 1.73* | Linoleic acid (C18:cis[9,12]2), ratio versus control (day 14): 2.2* | Nervonic acid (C24:cis[15]1), ratio versus control (day 14): 1.54* | Palmitic acid (C16:0), ratio versus control (day 14): 1.89* | Phosphatidylcholine (C16:0,C20:5), ratio versus control (day 14): 1.54* | TAG (C16:0,C18:1,C18:3), ratio versus control (day 14): 5.45* | TAG (C16:0,C18:2), ratio versus control (day 14): 4.36* | TAG (C18:1,C18:2), ratio versus control (day 14): 3.37* | TAG (C18:2,C18:2), ratio versus control (day 14): 3.82* | TAG (C18:2,C18:3), ratio versus control (day 14): 2.41* | TAG No 01, ratio versus control (day 14): 1.93* | TAG No 05, ratio versus control (day 14): 3.02* | TAG No 07, ratio versus control (day 14): 3.54* | dihomo-gamma-Linolenic acid (C20:cis[8,11,14]3), ratio versus control (day 14): 2.58* | erythro-Sphingosine, ratio versus control (day 14): 1.78* | 3-O-Methylsphingosine (d18:1), ratio versus control (day 28): 1.52* | 5-O-Methylsphingosine (d18:1), ratio versus control (day 28): 1.59* | 14-Methylhexadecanoic acid, ratio versus control (day 28): 1.31* | Behenic acid (C22:0), ratio versus control (day 28): 2.03* | Cholesterol, ratio versus control (day 28): 1.75* | Coenzyme Q9, ratio versus control (day 28): 1.78* | DAG (C18:1,C18:2), ratio versus control (day 28): 2.85* | Eicosanoic acid (C20:0), ratio versus control (day 28): 2.08* | Glucose, ratio versus control (day 28): 1.15 | Glycerol phosphate, lipid fraction, ratio versus control (day 28): 1.98* | Glycerol, lipid fraction, ratio versus control (day 28): 2.58* | Glycerol-3-phosphate, polar fraction, ratio versus control (day 28): 1.79 | Heptadecanoic acid (C17:0), ratio versus control (day 28): 2.84* | Linoleic acid (C18:cis[9,12]2), ratio versus control (day 28): 2.2* | Nervonic acid (C24:cis[15]1), ratio versus control (day 28): 1.38* | Palmitic acid (C16:0), ratio versus control (day 28): 2.03* | Phosphatidylcholine (C16:0,C20:5), ratio versus control (day 28): 1.15* | TAG (C16:0,C18:1,C18:3), ratio versus control (day 28): 3.93* | TAG (C16:0,C18:2), ratio versus control (day 28): 3.68* | TAG (C18:1,C18:2), ratio versus control (day 28): 4.49* | TAG (C18:2,C18:2), ratio versus control (day 28): 5.11* | TAG (C18:2,C18:3), ratio versus control (day 28): 3.9* | TAG No 01, ratio versus control (day 28): 2.61* | TAG No 05, ratio versus control (day 28): 4.39* | TAG No 07, ratio versus control (day 28): 4.13* | dihomo-gamma-Linolenic acid (C20:cis[8,11,14]3), ratio versus control (day 28): 3.54* | erythro-Sphingosine, ratio versus control (day 28): 1.46*

Source: patent US20150017667A1, “MEANS AND METHODS FOR ASSESSING LIVER DISORDERS” (BASF SE, priority 2012, published 2015)
